Measurements taken from patent US20250099455A1, “TREATMENT FOR CONGESTIVE HEART FAILURE” (FibroGen, Inc., priority 2022, published 2025).
“Also recorded” adds a separate entry of the source. Read-outs that look alike come from different tables or passages of the source.

What was measured:
[1] = target: PHD2 (Homo sapiens (Human), UniProt Q9GZT9); experiment: HIF-PH assay (14CO2 capture), PHD2; assay type: biochemical
Source text: The selectivity profile for the compound of Formula I can be determined using, for example, any assay familiar and commonly accessible to those skilled in the art, e.g., the following HIF-PH assay. Ketoglutaric acid α-[1-^14C]-sodium salt, alpha-ketoglutaric acid sodium salt, and HPLC purified peptide may be obtained from commercial sources, e.g., Perkin-Elmer (Wellesley MA), Sigma-Aldrich, and SynPep Corp. (Dublin CA), respectively. Peptides for use in the assay may be fragments of HIFα as described above or as disclosed in International Publication WO 2005/118836, incorporated by reference herein. HIF-PH, e.g., PHD1 (EGLN2) or PHD2 (EGLN1), can be expressed in, e.g., insect Hi5 cells, and partially purified, e.g., through a SP ion exchange chromatography column. Enzyme activity is determined by capturing ^14CO2 using an assay described by Kivirikko and Myllyla (1982, Methods Enzymol. 82:245-304). […] The peptide-dependent percent turnover is calculated by subtracting percent turnover in the absence of peptide from percent turnover in the presence of substrate peptide. Percent inhibition and IC50 are calculated using peptide-dependent percent turnover at given inhibitor concentrations. […] IC50 of test compound for PHD1 and for PHD2 and/or PHD3 can be readily determined using the above method, and used to assess the selectivity of the compound for inhibition of PHD1.

[2] = test system: diastolic dysfunction HF in obese ZSF1 rats; experiment: ZSF1 model of heart failure with preserved ejection fraction (HFpEF), monotherapy; assay type: in vivo, rat
Source text: This study determined the effects of the compound of Formula I on cardiac function after 16 weeks of treatment in male obese ZSF1 rats.
Lean ZSF1 rats were used as controls.
The obese ZSF1 rat was developed by crossing diabetic Zucker fatty rats with spontaneously hypertensive heart failure (SHHF) rats
• Hypertension • Impaired renal function • Obesity • Type 2 diabetes • Insulin resistance, hyperinsulinemia • Hypertriglyceridemia, • Hypercholesterolemia

[3] = test system: acute myocardial ischemia; experiment: Acute cardioprotection: infarct size post-acute myocardial ischemia; assay type: in vivo
[4] = Tissue distribution in mice; assay type: in vivo, mouse; conditions: for Compound of Formula 1 (μg/mL or μg/g): male Swiss Webster mice, single iv dose 60 mg/kg; for Kp at 4 h / Kp at 8 h: male, Swiss Webster, mouse, mice, single iv 60 mg/kg, read-out: Tissue/plasma ratio
Procedure: • N=3/time point, male Swiss Webster mice, single iv dose, 60 mg/kg Compound of Formula I

Chain of PHD2 (Q9GZT9 whole entry, species assumed, the tested form may be a part): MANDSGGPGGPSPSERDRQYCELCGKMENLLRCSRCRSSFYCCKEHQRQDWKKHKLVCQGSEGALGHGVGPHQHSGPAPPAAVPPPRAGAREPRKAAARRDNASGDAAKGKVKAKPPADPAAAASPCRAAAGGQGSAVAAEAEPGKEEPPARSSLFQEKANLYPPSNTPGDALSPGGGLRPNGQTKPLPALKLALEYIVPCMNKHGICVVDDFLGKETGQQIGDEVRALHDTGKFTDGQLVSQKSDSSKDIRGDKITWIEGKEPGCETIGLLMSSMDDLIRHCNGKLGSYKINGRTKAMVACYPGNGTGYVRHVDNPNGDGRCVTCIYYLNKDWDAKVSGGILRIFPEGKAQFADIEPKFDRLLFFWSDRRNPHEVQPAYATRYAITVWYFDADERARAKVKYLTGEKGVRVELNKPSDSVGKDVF

CC(C)(CC(=O)O)NC(=O)c1nc(C#N)c2cc(Oc3ccccc3)ccc2c1O [Formula I, 3-[(1-cyano-4-hydroxy-7-phenoxy-isoquinoline-3-carbonyl)-amino]-3-methyl-butyric acid]
IC50 ([1]; Table 1): 20.4 µM
IC50 ([1]; additional experiment, Table 1A): 16.9 µM
hypertension ([2]; 20 mg/kg QOD, 16 weeks): Significant stabilization of
diastolic function ([2]; 20 mg/kg QOD, 16 weeks, end-diastolic pressure, left atrium weight, relaxation time, dp/dt minimum): improved; also recorded: Significant improvement in
blood pressure (mean, diastolic, systolic) ([2]; monotherapy): normalized
infarct size [3]: reduced; also recorded: dose-dependent reducing affect
Compound of Formula 1 (μg/mL or μg/g) ([4]; Colon, 4 h post dose): 12.9 ± 2.7 μg/mL or μg/g
Compound of Formula 1 (μg/mL or μg/g) ([4]; Colon, 8 h post dose): 16.1 ± 6.3 μg/mL or μg/g
Compound of Formula 1 (μg/mL or μg/g) ([4]; Duodenum, 4 h post dose): 19.1 ± 5.6 μg/mL or μg/g
Compound of Formula 1 (μg/mL or μg/g) ([4]; Duodenum, 8 h post dose): 21.8 ± 4.1 μg/mL or μg/g
Compound of Formula 1 (μg/mL or μg/g) ([4]; Heart, 4 h post dose): 10.4 ± 4.6 μg/mL or μg/g
Compound of Formula 1 (μg/mL or μg/g) ([4]; Heart, 8 h post dose): 7.4 ± 2.1 μg/mL or μg/g
Compound of Formula 1 (μg/mL or μg/g) ([4]; Kidney, 4 h post dose): 9.2 ± 3.4 μg/mL or μg/g
Compound of Formula 1 (μg/mL or μg/g) ([4]; Kidney, 8 h post dose): 7.2 ± 1.9 μg/mL or μg/g
Compound of Formula 1 (μg/mL or μg/g) ([4]; Liver, 4 h post dose): 40.2 ± 7.2 μg/mL or μg/g
Compound of Formula 1 (μg/mL or μg/g) ([4]; Liver, 8 h post dose): 38.4 ± 4.6 μg/mL or μg/g
Compound of Formula 1 (μg/mL or μg/g) ([4]; Plasma, 4 h post dose): 56.6 ± 10.6 μg/mL or μg/g
Compound of Formula 1 (μg/mL or μg/g) ([4]; Plasma, 8 h post dose): 43.3 ± 11.0 μg/mL or μg/g
Kp at 4 h ([4]; Colon, 4 h post dose): 0.23
Kp at 8 h ([4]; Colon, 8 h post dose): 0.37
Kp at 4 h ([4]; Duodenum, 4 h post dose): 0.34
Kp at 8 h ([4]; Duodenum, 8 h post dose): 0.5
Kp at 4 h ([4]; Heart, 4 h post dose): 0.18
Kp at 8 h ([4]; Heart, 8 h post dose): 0.17
Kp at 4 h ([4]; Kidney, 4 h post dose): 0.16
Kp at 8 h ([4]; Kidney, 8 h post dose): 0.17
Kp at 4 h ([4]; Liver, 4 h post dose): 0.71
Kp at 8 h ([4]; Liver, 8 h post dose): 0.89
Kp at 4 h ([4]; Plasma, 4 h post dose): 1
Kp at 8 h ([4]; Plasma, 8 h post dose): 1
